The record followed here is patent US20170172955A1, “Treatment of Mixed Dyslipidemia” (priority 2015, published 2017).

Like-named read-outs stand apart in the source and are kept apart here.

Data set [1] has as its system plasma fibrinogen. Kind of data set: Fibrinogen levels in rats (electro immunoassay). The note with it: male Sprague-Dawley rats. It counts as in vivo, rat. The protocol: Fifty-Six male Sprague-Dawley rats were obtained from Charles River Laboratories. All animals were allowed normal rat chow (Ralston-Purina) and water ad libitum in temperature-controlled rooms, under a 12-hour light, 12-hour dark cycle beginning with lights on at 6 AM. Rats were distributed to 7 groups of 8 rats per group. […] Control animals received vehicle alone. […] CI-719 is gemfibrozil. […] The plasma fibrinogen plasma levels were determined by electro immunoassay. […] Data are shown in FIG. 12 as mean±SEM of as percent of control fibrinogen levels. *p<0.001, two-sided unpaired t-test, compared to control.

Data set [2] concerns primary rat hepatocytes. As to the kind of experiment: Cholesterol and triglyceride synthesis ([14C]acetate) in primary rat hepatocyte cultures. It counts as cell-based. The note with it: for % Change in Synthesis, Cholesterol ± SEM / % Change in Synthesis, Triglyceride ± SEM: relative to vehicle cells. The protocol: At end of labeling period, cells were washed with room temperature D-PBS, 2.0 mL per well and the reaction is stopped with 1.0 mL 0.75 N HCl. Cells were scraped and transferred to 15×45 mm glass vial (1 dram size). Wells were washed with 1.0 mL of methanol and added to scraped cells, followed by the addition of 2.0 mL of chloroform. Vials were capped and vortexed for 5 seconds and centrifuged in a Beckman GS 6KR centrifuge at 3,600 rpm for 15 minutes at room temperature to separate phases. The bottom chloroform phase was transferred to new 15×45 mm glass vial, dried down in a […] evaporator at 37° C. under nitrogen gas. Vials were cooled to room temperature and samples resuspended in 130 μL of n-heptane:chloroform, 4:1 by vortexing for 5 seconds. […] Plates were dried for 30 minutes in an 80° C. gravity convection oven, cooled to room temperature, and wrapped in SaranTM Wrap. Plates were exposed overnight to phosphorimager plates, scanned on Typhoon PhosporImager (Molecular Dynamics), and analyzed using Imagequant software (Molecular Dynamics).

Data set [3] deals with CYP2E1 (Homo sapiens, UniProt P05181). As to the kind of experiment: biochemical. The protocol:
Human livers, HLM141, HLM143, and HLM144 were selected from the University of Washington Human Liver Bank for this study. […] The actual concentrations used for each of the other probes are specified below. […] The seven isoforms and the metabolic pathway of each of the probes used to monitor specific isoform activity are listed below.
CYP2E1: The formation of p-nitrocatechol from p-nitrophenol (40 μM). Amounts of product formed are monitored by HPLC.

In data set [4] the test system is cholesterol and triglyceride synthesis. Kind of data set: Inhibition of plasma and hepatic cholesterol and triglyceride synthesis in apoB100/Lp(a) mice. The data set is classed as in vivo, mouse. The protocol:
The apoB100/Lp(a) (cross of mice transgenic for human apoB100 and human apo(a)) mice) were obtained from Charles River. There were 8 animals per treatment group. […] Mice were acclimated for a minimum of 7 days to a reverse 12 hour light/12 hour dark cycle prior to administration of the first dose of test drug or vehicle. […] Test drugs and vehicle were given once daily. Thirty minutes after the eighth dose, 12.5 μCi [^14C] sodium acetate was administered. […] Individual plasma samples were acquired by placing whole blood samples into EDTA loaded centrifuge tubes and centrifuged. Plasma was transferred to new tubes and stored at −20° C. until assayed for [^14C] labeled cholesterol. Liver samples were flash frozen in liquid nitrogen and stored at −80° C. until assayed for [^14C] labeled cholesterol and triglycerides. Assay for plasma [^14C] labeled cholesterol. […] Additionally, 0.025 μCi […] (Perkin Elmer Life Sciences Inc. Boston, Mass.) was added to each sample, and to 2 or 3 spike controls in 7-mL scintillation vials, as an extraction internal standard. […] Samples were vortexed and saponified at 75° C. for 1 hour. After the samples cooled […] [^14C] labeled cholesterol was extracted with 2.5 mL petroleum ether per sample and shaken for 10 minutes, and then centrifuged for 10 minutes at 0° C. […] Each sample was then dissolved in 0.25 mL of 2 parts chloroform to 1 part per methanol by sonication. Five mL scintillant was added to each sample and the spike controls for direct [^3H] and [^14C] […] per minute (DPM) recording using a Packard 2500TR Tri-Carb Liquid Scintillation Analyzer. […] Assay for liver [^14C] labeled cholesterol and triglycerides. Frozen liver samples were kept on dry ice during sample weighing procedures and assay preparations. Each sample was homogenized in a solution of ice-cold methanol;0.5 N acetic acid. […] Samples were then vortexed and centrifuged for 20 minutes at 3000 rpm at room temperature to separate the phases. The lower chloroform layer was transferred to new vials. The remaining upper aqueous phase was extracted in like manner with 15 mL chloroform 2 more times. […] The aqueous phase was discarded and the chloroform phase was washed 2 times in like manner with 15 mL 1 part methanol to 1 part water, discarding the aqueous phase. The chloroform samples were evaporated under nitrogen gas, and resuspended in 600 μL chloroform and 30 μL removed for scintillation counting. Sample volumes were adjusted for corrected percent recovery and a calculated volume to load based on total liver weight. Calculated volumes were spotted onto TLC plates and dried in an 80° C. oven. After the plates had cooled to room temperature, they were developed in 102 mL isooctane:diethyl ether:glacial acetic acid, 75:25:2, respectively. Plates were dried in an 80° C. oven and allowed to cool to room temperature, wrapped in plastic wrap, and exposed to the phosphorimager screen. Imagequant software was used to quantitate cholesterol and triglyceride bands.

Setting [5] is: 100 mg/kg oral once daily, 8 doses.

Chain of CYP2E1 (P05181 whole entry, canonical isoform): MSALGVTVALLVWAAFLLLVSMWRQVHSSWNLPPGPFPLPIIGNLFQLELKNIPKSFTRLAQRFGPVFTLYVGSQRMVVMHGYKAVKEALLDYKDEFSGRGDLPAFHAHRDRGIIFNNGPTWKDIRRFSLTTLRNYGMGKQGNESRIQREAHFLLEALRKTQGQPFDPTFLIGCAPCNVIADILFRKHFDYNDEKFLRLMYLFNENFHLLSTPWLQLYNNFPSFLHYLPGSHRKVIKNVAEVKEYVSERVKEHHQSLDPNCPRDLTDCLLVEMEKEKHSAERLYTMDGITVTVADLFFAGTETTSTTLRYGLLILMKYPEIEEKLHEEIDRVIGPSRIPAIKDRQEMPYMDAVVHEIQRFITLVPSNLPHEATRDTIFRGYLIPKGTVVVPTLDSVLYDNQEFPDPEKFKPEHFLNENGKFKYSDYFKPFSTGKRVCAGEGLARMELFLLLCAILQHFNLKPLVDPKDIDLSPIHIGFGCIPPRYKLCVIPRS

As to `CC(C)(CCCCOCCCCC(C)(C)C(=O)O)C(=O)O` [Gemcabene, 6,6′-oxybis(2,2-dimethylhexanoic acid)], in data set [1] (30 mg/kg/day oral, 14 days), the “reduction in plasma fibrinogen levels compared with control” value is 52%. In addition, the “reduction in plasma fibrinogen levels compared with control” value in data set [1] (100 mg/kg/day oral, 14 days (PD 72953)) was found to be 57%. In data set [2] (10 μM), the “decrease of cholesterol synthesis (± SEM)” value turned out to be 61.5±1.8%; the “reduction of triglyceride synthesis” value was found to be 8.9±4.5%; the “% Change in Synthesis, Cholesterol ± SEM” value is −61.5 ± 1.8%; the “% Change in Synthesis, Triglyceride ± SEM” value was −8.9 ± 45%^ns. In addition, in data set [2] (30 μM), the “decrease of cholesterol synthesis (± SEM)” value is listed as 90.0±0.8%; the “reduction of triglyceride synthesis” value was 72.1±2.9%; the “% Change in Synthesis, Cholesterol ± SEM” value is reported as −90.0 ± 0.8%; the “% Change in Synthesis, Triglyceride ± SEM” value was −72.1 ± 2.9%. In addition, the 50% inhibitory concentration (IC50) – broadly, the concentration that inhibits the measured activity by half – in data set [3] was over 1500 µM. In addition, the activity slightly enhanced result in data set [3] (human, 1500 μM) is “about 20%”. In data set [3] (human, microsomes), this compound gave a half-inhibitory concentration (IC50) of over 1500 µM. Moreover, in data set [4] (100 mg/kg), the “inhibition of cholesterol synthesis as measured in plasma” value amounted to 60%, the “inhibition of newly synthesized cholesterol in liver tissue” value was 65% and the “inhibition of newly synthesized triglycerides in liver tissue” value stood at 66%. For the same compound, in data set [4] (setting [5]), the “hepatic Cholesterol synthesis ([14C] sodium acetate), % Change from Vehicle” value is −65 ± 11 % and the “hepatic Triglycerides synthesis ([14C] sodium acetate), % Change from Vehicle” value is listed as −66 ± 6 %.
